Test results: ChEMBL document CHEMBL2203200, “Synthesis and antitrypanosomal activity of new 6,6,7-trisubstituted thiopyrano[2,3-d][1,3]thiazoles” (Bioorg Med Chem Lett, 2012)

Tests used:
[1] = tested on: Trypanosoma brucei brucei; assay: Antimicrobial activity against bloodstream forms of Trypanosoma brucei brucei 90-13 at 1 ug/ml after 72 hrs by resazurin assay; format: functional; conditions: 90-13, 72 h
[2] = tested on: Trypanosoma brucei brucei; assay: Antimicrobial activity against bloodstream forms of Trypanosoma brucei brucei 90-13 at 10 ug/ml after 72 hrs by resazurin assay; format: functional; conditions: 90-13, 72 h
[3] = tested on: Trypanosoma brucei gambiense; assay: Antimicrobial activity against bloodstream forms of Trypanosoma brucei gambiense Feo after 72 hrs by resazurin assay; format: functional, organism-based
[4] = tested on: Trypanosoma brucei brucei; assay: Antimicrobial activity against bloodstream forms of Trypanosoma brucei brucei 90-13 after 72 hrs by resazurin assay; format: functional, organism-based; conditions: 90-13, 72 h
[5] = tested on: Trypanosoma brucei gambiense; assay: Antimicrobial activity against bloodstream forms of Trypanosoma brucei gambiense Feo at 1 ug/ml after 72 hrs by resazurin assay; format: functional
[6] = tested on: Trypanosoma brucei gambiense; assay: Antimicrobial activity against bloodstream forms of Trypanosoma brucei gambiense Feo at 10 ug/ml after 72 hrs by resazurin assay; format: functional

Compound | inhibition at 1 µg/mL [1] [%] | inhibition at 10 µg/mL [2] [%] | IC50 [3] [µM] | IC50 [4] [µM] | inhibition at 1 µg/mL [5] [%] | inhibition at 10 µg/mL [6] [%]
CCN(CC)c1ccc([C@H]2c3sc(=O)[nH]c3SC[C@@]2(CC(=O)O)C(=O)O)cc1 (relative stereo) | < 5 | 5.6 | – | – | – | –
CN(C)c1ccc([C@H]2c3sc(=O)[nH]c3SC[C@]23CC(=O)N(c2ccc(Cl)cc2)C3=O)cc1 (relative stereo) | 36.8 | 98.2 | 1.47 | 1.28 | – | –
CN(C)c1ccc([C@H]2c3sc(=O)[nH]c3SC[C@@]2(CC(=O)O)C(=O)O)cc1 (relative stereo) | 5.3 | < 5 | – | – | – | –
Cc1cccc(N2C(=O)C[C@]3(CSc4[nH]c(=O)sc4[C@@H]3c3ccccc3O)C2=O)c1 (relative stereo) | 5.5 | 24.5 | – | – | < 5 | 15.3
N=C(N)c1ccc(OCCCCCOc2ccc(C(=N)N)cc2)cc1 [PENTAMIDINE] | – | – | 0.0052 | 0.0032 | – | –
O=C1C[C@]2(CSc3[nH]c(=O)sc3[C@@H]2c2ccccc2O)C(=O)N1c1ccc(Cl)cc1 (relative stereo) | 13.4 | 11.5 | – | – | 0.9 | 19.3
COc1cc([C@H]2c3sc(=O)[nH]c3SC[C@@]2(CC(=O)O)C(=O)O)ccc1OC(F)F (relative stereo) | 11.3 | < 5 | – | – | – | –
COc1ccc([C@H]2c3sc(=O)[nH]c3SC[C@]23CC(=O)N(c2ccc(Cl)cc2)C3=O)cc1 (relative stereo) | 10.6 | 13 | – | – | 2.3 | 9.8
CCN(CC)c1ccc([C@H]2c3sc(=O)[nH]c3SC[C@]23CC(=O)N(c2ccc(Cl)cc2)C3=O)cc1 (relative stereo) | 21.1 | 98.2 | 3.62 | 2.4 | – | –
O=C1C[C@]2(CSc3[nH]c(=O)sc3[C@@H]2c2ccccc2O)C(=O)N1c1ccc(O)cc1 (relative stereo) | 7 | 18.5 | – | – | < 5 | 15.4
COc1ccc([C@H]2c3sc(=O)[nH]c3SC[C@]23CC(=O)N(c2ccc(Cl)cc2)C3=O)cc1OC (relative stereo) | 82.4 | 93.6 | 0.423 | 0.262 | – | –
COc1cc([C@H]2c3sc(=O)[nH]c3SC[C@@]2(CC(=O)O)C(=O)O)ccc1OCc1ccccc1 (relative stereo) | 18.1 | < 5 | – | – | – | –
